# Columns and labels:
# [1] = target: T1, JAK3: Recombinant human kinase domain (Homo sapiens, UniProt P52333); experiment: Determination of IC50 of Janus Kinase (JAK) inhibition, radioactive end-point 33P-ATP assay, JAK3; type: biochemical; conditions: ATP 1.5 uM, peptide 50 uM, 20 minutes, read-out: JAK3-INHIB-DR/v1~NO ADDITIVE~Enzyme_Conc = 100
# T1 construct: JAK3: Recombinant human kinase domain from Millipore (Cat #14-629) or prepared; purchased Millipore 14-629
# [2] = target: T2, recombinant human SYK360-635 (Homo sapiens, UniProt P43405); experiment: Determination of IC50 of Spleen Tyrosine Kinase (SYK) inhibition, 33P ATP filtration assay; type: biochemical; conditions: SYK aa 360-635 0.5 nM; ATP 20 μM, peptide 5 μM, 0.1% BSA; read-out: SYK_ENZYME_FILTRATION/v1, BSA
# T2 construct: made in house
# T1 sequence (P52333 822-1111 limits assumed): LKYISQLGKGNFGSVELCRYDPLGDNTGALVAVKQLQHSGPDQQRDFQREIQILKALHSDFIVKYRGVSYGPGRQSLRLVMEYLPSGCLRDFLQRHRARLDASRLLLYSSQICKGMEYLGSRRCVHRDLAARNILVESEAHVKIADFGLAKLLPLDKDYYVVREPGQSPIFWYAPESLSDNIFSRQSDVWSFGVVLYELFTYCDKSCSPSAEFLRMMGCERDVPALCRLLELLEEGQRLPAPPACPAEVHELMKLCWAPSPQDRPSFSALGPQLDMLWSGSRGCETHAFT
Structure (SMILES),IC50 [1] [nM],IC50 [2] [nM]
"C[C@H](NC(=O)c1c[nH]c2ncc(-c3nn(C)c4cc(F)ccc34)nc12)C(C)(C)C [Example I-45, 2-(6-Fluoro-1-methyl-1H-indazol-3-yl)-5H-pyrrolo[2,3-b]pyrazine-7-carboxylic acid ((S)-1,2,2-trimethyl-propyl)-amide]",0.535,11
"CC(NC(=O)c1c[nH]c2ncc(-c3nn(C)c4cc(Cl)ccc34)nc12)c1ncco1 (stereo not shown) [Example I-48, 2-(6-Chloro-1-methyl-1H-indazol-3-yl)-5H-pyrrolo[2,3-b]pyrazine-7-carboxylic acid (1-oxazol-2-yl-ethyl)-amide]",4.91,22.1
"CC(NC(=O)c1c[nH]c2ncc(-c3nn(C)c4cc(F)ccc34)nc12)c1cocn1 (stereo not shown) [Example I-52, 2-(6-Fluoro-1-methyl-1H-indazol-3-yl)-5H-pyrrolo[2,3-b]pyrazine-7-carboxylic acid (1-oxazol-4-yl-ethyl)-amide]",8.87,19.4
"Cc1cc(C(C)NC(=O)c2c[nH]c3ncc(-c4nn(C)c5cc(F)ccc45)nc23)no1 (stereo not shown) [Example I-54, 2-(6-Fluoro-1-methyl-1H-indazol-3-yl)-5H-pyrrolo[2,3-b]pyrazine-7-carboxylic acid [1-(5-methyl-isoxazol-3-yl)-ethyl]-amide]",14,77.7
"CC(NC(=O)c1c[nH]c2ncc(-c3nn(C)c4cc(F)ccc34)nc12)c1ccno1 (stereo not shown) [Example I-55, 2-(6-Fluoro-1-methyl-1H-indazol-3-yl)-5H-pyrrolo[2,3-b]pyrazine-7-carboxylic acid (1-isoxazol-5-yl-ethyl)-amide]",16.9,56.4
"C[C@@H](NC(=O)c1c[nH]c2ncc(-c3nn(C)c4cc(F)ccc34)nc12)C(C)(F)F [Example I-56, 2-(6-Fluoro-1-methyl-1H-indazol-3-yl)-5H-pyrrolo[2,3-b]pyrazine-7-carboxylic acid ((R)-2,2-difluoro-1-methyl-propyl)-amide]",11.7,7.23
"C[C@@H](NC(=O)c1c[nH]c2ncc(-c3nn(C)c4cc(F)ccc34)nc12)C1=NCCO1 [Example I-60, 2-(6-Fluoro-1-methyl-1H-indazol-3-yl)-5H-pyrrolo[2,3-b]pyrazine-7-carboxylic acid [(R)-1-(4,5-dihydro-oxazol-2-yl)-ethyl]-amide]",27.4,31.9
"CC(NC(=O)c1c[nH]c2ncc(-c3nn(C)c4cc(F)ccc34)nc12)[C@H]1C[C@@H](O)C1 (stereo partly drawn) [Example I-73, 2-(6-Fluoro-1-methyl-1H-indazol-3-yl)-5H-pyrrolo[2,3-b]pyrazine-7-carboxylic acid [1-(cis-3-hydroxy-cyclobutyl)-ethyl]-amide]",19.7,9.95
"CC(NC(=O)c1c[nH]c2ncc(-c3nn(C)c4cc(F)ccc34)nc12)[C@H]1C[C@H](O)C1 (stereo partly drawn) [Example I-75, 2-(6-Fluoro-1-methyl-1H-indazol-3-yl)-5H-pyrrolo[2,3-b]pyrazine-7-carboxylic acid [1-(trans-3-hydroxy-cyclobutyl)-ethyl]-amide]",20.6,9.2
"C[C@@H](NC(=O)c1c[nH]c2ncc(-c3nccc4ccccc34)nc12)C(=O)N1CC(C#N)C1 [Example I-77, 2-Isoquinolin-1-yl-5H-pyrrolo[2,3-b]pyrazine-7-carboxylic acid [(R)-2-(3-cyano-azetidin-1-yl)-1-methyl-2-oxo-ethyl]-amide]",53.8,> 10000
"C[C@@H](NC(=O)c1c[nH]c2ncc(-c3nn(C)c4cc(F)ccc34)nc12)c1ccccn1 [Example I-78, 2-(6-Fluoro-1-methyl-1H-indazol-3-yl)-5H-pyrrolo[2,3-b]pyrazine-7-carboxylic acid ((R)-1-pyridin-2-yl-ethyl)-amide]",14.2,30.2
"C[C@H](NC(=O)c1c[nH]c2ncc(-c3nn(C)c4cc(Cl)ccc34)nc12)C(C)(C)C#N [Example I-80, 2-(6-Chloro-1-methyl-1H-indazol-3-yl)-5H-pyrrolo[2,3-b]pyrazine-7-carboxylic acid ((S)-2-cyano-1,2,2-trimethyl-ethyl)-amide]",12.6,29.1
"CCn1nc(-c2cnc3[nH]cc(C(=O)N[C@H](C)C(=O)N4CC(C#N)C4)c3n2)c2ccc(Cl)cc21 [Example I-85, 2-(6-Chloro-1-ethyl-1H-indazol-3-yl)-5H-pyrrolo[2,3-b]pyrazine-7-carboxylic acid [(R)-2-(3-cyano-azetidin-1-yl)-1-methyl-2-oxo-ethyl]-amide]",0.9,33.4
"C[C@@H](NC(=O)c1c[nH]c2ncc(-c3nn(C)c4c(F)c(F)ccc34)nc12)C(=O)N1CC(C#N)C1 [Example I-86, 2-(6,7-Difluoro-1-methyl-1H-indazol-3-yl)-5H-pyrrolo[2,3-b]pyrazine-7-carboxylic acid [(R)-2-(3-cyano-azetidin-1-yl)-1-methyl-2-oxo-ethyl]-amide]",0.745,109
CCc1ccc2c(-c3cnc4[nH]cc(C(=O)N[C@H](C)C(=O)N5CC(C#N)C5)c4n3)nn(C)c2c1 [Example I-87],1.78,158
"CC(C)NC(=O)c1c[nH]c2ncc(-c3nn(C)c4cc(F)cc(F)c34)nc12 [Example I-101, 2-(4,6-Difluoro-1-methyl-1H-indazol-3-yl)-5H-pyrrolo[2,3-b]pyrazine-7-carboxylic acid isopropylamide]",10.8,13.8
"CC(C)NC(=O)c1c[nH]c2ncc(-c3nn(C4COC4)c4cc(F)ccc34)nc12 [Example I-102, 2-(6-Fluoro-1-oxetan-3-yl-1H-indazol-3-yl)-5H-pyrrolo[2,3-b]pyrazine-7-carboxylic acid isopropylamide]",1.63,18.7
"COC[C@H](C)NC(=O)c1c[nH]c2ncc(-c3nn(C4COC4)c4cc(F)ccc34)nc12 [Example I-103, 2-(6-Fluoro-1-oxetan-3-yl-1H-indazol-3-yl)-5H-pyrrolo[2,3-b]pyrazine-7-carboxylic acid ((S)-2-methoxy-1-methyl-ethyl)-amide]",0.26,43.8
"CC(C)NC(=O)c1c[nH]c2ncc(-c3nn(C4CNC4)c4cc(F)ccc34)nc12 [Example I-104, 2-(1-Azetidin-3-yl-6-fluoro-1H-indazol-3-yl)-5H-pyrrolo[2,3-b]pyrazine-7-carboxylic acid isopropylamide]",5.68,41
"Cn1nc(-c2cnc3[nH]cc(C(=O)NC4CCOC4)c3n2)c2ccc(Cl)cc21 (stereo not shown) [Example I-107, 2-(6-Chloro-1-methyl-1H-indazol-3-yl)-5H-pyrrolo[2,3-b]pyrazine-7-carboxylic acid (tetrahydro-furan-3-yl)-amide]",11.5,20.8
"Cn1nc(-c2cnc3[nH]cc(C(=O)NC4CCCCC4)c3n2)c2ccc(Cl)cc21 [Example I-110, 2-(6-Chloro-1-methyl-1H-indazol-3-yl)-5H-pyrrolo[2,3-b]pyrazine-7-carboxylic acid cyclohexylamide]",7.3,249
"Cn1nc(-c2cnc3[nH]cc(C(=O)NC4CCCOC4)c3n2)c2ccc(Cl)cc21 (stereo not shown) [Example I-111, 2-(6-Chloro-1-methyl-1H-indazol-3-yl)-5H-pyrrolo[2,3-b]pyrazine-7-carboxylic acid (tetrahydro-pyran-3-yl)-amide]",3.97,21.7
"Cn1nc(-c2cnc3[nH]cc(C(=O)NC4CCOCC4)c3n2)c2ccc(Cl)cc21 [Example I-112, 2-(6-Chloro-1-methyl-1H-indazol-3-yl)-5H-pyrrolo[2,3-b]pyrazine-7-carboxylic acid (tetrahydro-pyran-4-yl)-amide]",14.6,33.3
"Cn1nc(-c2cnc3[nH]cc(C(=O)NC4CCS(=O)(=O)C4)c3n2)c2ccc(Cl)cc21 (stereo not shown) [Example I-113, 2-(6-Chloro-1-methyl-1H-indazol-3-yl)-5H-pyrrolo[2,3-b]pyrazine-7-carboxylic acid (1,1-dioxo-tetrahydro-1λ6-thiophen-3-yl)-amide]",256,198
"Cn1nc(-c2cnc3[nH]cc(C(=O)NCC(C)(C)CO)c3n2)c2ccc(F)cc21 [Example I-114, 2-(6-Fluoro-1-methyl-1H-indazol-3-yl)-5H-pyrrolo[2,3-b]pyrazine-7-carboxylic acid (3-hydroxy-2,2-dimethyl-propyl)-amide]",12.8,12.1
"Cn1nc(-c2cnc3[nH]cc(C(=O)NCC(C)(C)C)c3n2)c2ccc(F)cc21 [Example I-115, 2-(6-Fluoro-1-methyl-1H-indazol-3-yl)-5H-pyrrolo[2,3-b]pyrazine-7-carboxylic acid (2,2-dimethyl-propyl)-amide]",8.23,19.3
"CC(C)CNC(=O)c1c[nH]c2ncc(-c3nn(C)c4cc(F)ccc34)nc12 [Example I-116, 2-(6-Fluoro-1-methyl-1H-indazol-3-yl)-5H-pyrrolo[2,3-b]pyrazine-7-carboxylic acid isobutyl-amide]",9.44,17.6
"C[C@H](CN1CC[C@@H](F)C1)NC(=O)c1c[nH]c2ncc(-c3nn(C)c4cc(Cl)ccc34)nc12 [Example I-121, 2-(6-Chloro-1-methyl-1H-indazol-3-yl)-5H-pyrrolo[2,3-b]pyrazine-7-carboxylic acid [(R)-2-((R)-3-fluoro-pyrrolidin-1-yl)-1-methyl-ethyl]-amide]",124,372
"C[C@H](CN1CC[C@H](F)C1)NC(=O)c1c[nH]c2ncc(-c3nn(C)c4cc(Cl)ccc34)nc12 [Example I-122, 2-(6-Chloro-1-methyl-1H-indazol-3-yl)-5H-pyrrolo[2,3-b]pyrazine-7-carboxylic acid [(R)-2-((S)-3-fluoro-pyrrolidin-1-yl)-1-methyl-ethyl]-amide]",82.4,284
